Series [1] relates to Walker-Carciosarcom. Briefly: Photodynamic therapy in tumour-bearing rats: malondialdehyde in tumour homogenate (2-thiobarbituric acid). The class given is in vivo, Ratten. To be noted: marker of oxidative stress. From the text: Der Nachweis der therapeutischen Wirkung von COS-ALA-Addukten erfolgte an insgesamt 60 Ratten mit einem Walker-Carciosarcom (30 Verum- und 30 Kontrolltiere). Die Tumore […] worden, die photodynamische Therapie mit COS-ALA wurde durchgeführt, wenn die Tumoren eine Große von 1 cm^3 erreicht hatten. Zur Behandlung […], Frankfurt/M.) mit monochromatischem […] λ = 634 nm. Die Bestrahlungsdosis betrug 37 J/cm^2, die […]. […] Dazu wurden die Tiere getötet, die Tumore […] und deren Gewicht und […] histologische Untersuchungen wurde Gewebe in 10 %iger Formalinlösung fixiert. Zur Bestimung des oxidativen Stress in den Tumorhomogenisaten diente der Gehalt an Malondialdehyd, der mit Hilfe der 2-Thiobarbitursäure bestimmt wurde.

The subject of series [2] is Walker-Carciosarcom. In words: Photodynamic therapy in tumour-bearing rats: histological/cytological examination of tumour necrosis. The class given is in vivo, Ratten.
From the text: Der Nachweis der therapeutischen Wirkung von COS-ALA-Addukten erfolgte an insgesamt 60 Ratten mit einem Walker-Carciosarcom (30 Verum- und 30 Kontrolltiere). Die Tumore waren den Tieren implantiert worden, die photodynamische Therapie mit COS-ALA wurde durchgeführt, wenn die Tumoren eine Große von 1 cm^3 erreicht hatten.
Zur Behandlung diente eine Lampe "[sequence]" (Galdena AG, Frankfurt/M.) mit monochromatischem Licht der Wellenlänge λ = 634 nm. Die Bestrahlungsdosis betrug 37 J/cm^2, die mittlere Energie 8,5 W. Die behandelten Gruppen bestanden aus jeweils 6 Tieren, die nach 1, 2, 3, 5, 6 und 24 Stunden sowie 2 Wochen untersucht wurden. Dazu wurden die Tiere getötet, die Tumore exstirpiert und deren Gewicht und Größe gemessen. Für histologische Untersuchungen wurde Gewebe in 10 %iger Formalinlösung fixiert.
The format of series [3] is in vitro ADME, Schwein. To be noted: mean of 4 treated pig skins, after 2 Stunden Applikation. The method, then: Schweineohren wurden ohne Hautverletzungen sofort nach der Schlachtung aus einem Schlachthof abgeholt. Die Ohren wurden gründlich mit milder Seife abgewaschen. Unmittelbar danach wurde die subkutane Fettschicht mit dem Skalpell abgetrennt. Die Haut wurde in einem Container bei -20°C für weitere Untersuchungen aufbewahrt. Die Trennung der Epidermis von der Dermis erfolgte vorsichtig nach Erwärmung bei 60°C (1 Minute).
Die Eindringtiefe von COS-Salicylat wurde im Rahmen eines Schälverfahrens an einer Modellhaut bestimmt. Die 10%-ige COS-Salicylat-Lösung wurde auf die Hautoberfläche der Ohren aufgetragen und etwa 1 bis 2 Minuten in die Haut einmassiert. Währenddessen wurden die Ohren bei 35 °C temperiert.
Für die Schälung wurden 15 Tesafilmstreifen (Typ Tesa® Office, Beiersdorf, DE) auf eine Größe von 1,5 cm * 1,5 cm geschnitten und ausgewogen. Die auf dem Schweineohr ausgewählten Untersuchungsfelder von 2 cm * 2 cm wurden nacheinander mit den vorbereiteten Tesafilm-Streifen beklebt und danach abgezogen.
Die Streifen wurden mit Acetonitril bei 60°C im Laufe von 60 Minuten extrahiert. Die Lösungen wurden durch 0,5 µm-Membranen filtriert und mit Hilfe von HPLC analysiert.
Das Shimadzu LC-20A HPLC-System bestand aus einer Spherisorb S5 ODS2-Säule (Waters Co) und UV-Detektor. Mobile Phase war Wasser-Methanol-Acetonitril-Essigsaure. Tabelle 2: Mittelwerte der Wiederfindung aus 4 behandelten Schweinehäuten des COS-Salicylat (aus Beispiel 1) und Salicylsäure in einzelnen Hautschichten nach 2 Stunden Applikation.
Der Gehalt von COS-Salicylat in Epidermis und Dermis wurde mit Hilfe einer Franz-Zelle bestimmt.

For the compound 5-Aminolävulinsäure [ALA], the Malondialdehyd in series [1] (Zeit nach PDT 1 h) is on record as 0,25 nmol/mL; in series [1] (Zeit nach PDT 2 h) it was 0,42 nmol/mL; in series [1] (Zeit nach PDT 3 h), 0,47 nmol/mL; in series [1] (Zeit nach PDT 5 h), 0,55 nmol/mL; in series [1] (Zeit nach PDT 6 h), 0,61 nmol/mL; in series [1] (Zeit nach PDT 24 h) it was 0,75 nmol/mL. For the same compound, the “Nekrose in der Mitte des Tumorgewebes zu sehen nach” value in series [2] (time until necrosis is seen) is 72 Stunden. Further, in series [2] (time until necrosis of the whole tumour), the “Nekrose verbreitet sich auf das ganze Tumorgewebe nach” value is given as 2 Wochen.

For `O=C(O)c1ccccc1O` [Salicylsäure], in series [3], the “Wiederfindung, Verteilung in Dermis” value is recorded as 1,0 ± 0,15 µg/cm^2; the “Wiederfindung, Verteilung in Epidermis” value was 2,1 ± 0,2 µg/cm^2; the “Wiederfindung, Verteilung in Hornschicht” value is given as 5,3 ± 0,4 µg/cm^2.

The record behind these values is EP2440179B1, “CHITOSAN OLIGOSACCHARIDE-BASED COMPOSITIONS” (Teslenko, Alexander, priority 2009, dated 2010).
